This passage reports Activity and IC50 results from ChEMBL document CHEMBL1155739, “New indole alkaloids from the bark of Nauclea orientalis” (J Nat Prod, 2001).

Assay [1] relates to Candida albicans. Put plainly: (§1) Inhibition of Candida albicans secreted aspartic protease.
Assay [2] in a line: as §1.

Converted amounts (≈) assume the structure as drawn. The source made the active and inactive calls. The rule behind the calls is not given here.

As to `C=C[C@@H]1C2=C[C@H]3c4[nH]c5ccccc5c4CCN3C(=O)C2=C(O)O[C@H]1O[C@@H]1O[C@H](CO)[C@@H](O)[C@H](O)[C@H]1O`, the result in assay [1] was inactive.
Regarding `CC(C)CC(=O)N[C@H](C(=O)N[C@H](C(=O)N[C@@H](CC(C)C)[C@@H](O)CC(=O)N[C@@H](C)C(=O)N[C@@H](CC(C)C)[C@@H](O)CC(=O)O)C(C)C)C(C)C` [PEPSTATIN], in assay [2], the IC50 was determined as 6 ng/mL (≈ 8.75 nM).
